Experimental data: patent publication US11202757B2, “Dry powder compositions for intranasal delivery” (Formulex Pharma Innovations Ltd., priority 2017, dated 2021)
Counter-ions that a name gives are not always drawn.

Test: Particle size analysis (Malvern laser diffraction)
Type: physicochemical
Details: for size range of the active agent particle population: laser diffraction, active agent population of the composition
Experimental: (§1) The spray-drying process was carried out using the Mini Spray Dryer B-290 of Büchi Labortechnik AG. A magnetic stirrer (Fried Electric) was placed under the receiver (receiving chamber), a magnetic bar of appropriate size was inserted into the receiver, and then the diluent was added. […] Quantification was performed using HPLC and a Dionex HPLC instrument. A FEI Quanta-200 Scanning Electron Microscope (SEM) equipped with an Everhart-Thornley Detector was used to obtain the images of the spray-dried powder. The accelerating voltage of 20 kV was applied to provide magnification from 250 to 10,000 times. In addition, an X-ray Element Analysis Detector (Link ISIS, Oxford Instruments, GB) was used to determine the drug and particle identity and their distribution throughout DPI. Particle size was measured using the Malvern Mastersizer 3000 series based on the Light Diffraction method.
as §1, with “England)” for “GB)”

[1] = estimated in the range of 0-40 μm

Molecule	D(10) of sumatriptan succinate alone [1] [μm]	D(50) of sumatriptan succinate alone [1] [μm]	D(90) of sumatriptan succinate alone [1] [μm]	D(99) of sumatriptan succinate alone [1] [μm]	size range of the active agent particle population
CNS(=O)(=O)Cc1ccc2[nH]cc(CCN(C)C)c2c1 [sumatriptan succinate]	5.2	11.2	20.1	27.1	5-25 μm
C=CCN1CC[C@]23c4c5ccc(O)c4O[C@H]2C(=O)CC[C@@]3(O)[C@H]1C5 [naloxone hydrochloride]					5-30 μm
insulin-sodium chloride: small spherical particles of insulin-sodium chloride in the insulin composition					5-35 μm
COc1ccc2c3c1O[C@H]1C(=O)CC[C@@]4(O)[C@@H](C2)N(C)CC[C@]314.Cl [oxycodone hydrochloride]					3-30 μm
CC(=O)Nc1ccc(O)cc1 [paracetamol]					2-30 μm
